Measurements published in ChEMBL document CHEMBL1201862, “PubChem BioAssay data set” (2004).
The source made the active and inactive calls.

How the values were obtained:
Cytochrome P450 3A4 = Cytochrome P450 3A4 (Homo sapiens, UniProt P08684); conditions: Potency;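 further: confirmatory qHTS run detecting inhibitors and substrates of CYP3A4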
[1] = Trypanosoma cruzi growth suppression in host cells – NIH3T3 host cells, beta-gal luminescence, confirmation (AID 2044); type: functional, cell-based;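 further: intracellular parasites grown in NIH/3T3 mouse fibroblasts as host cells; luminescent beta-galactosidase reporter signal from transgenic T. cruzi replicating inside host cells; inhibitors lower the luminescence signal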
[2] = NIH3T3 cell viability loss – ATP luminescence, mouse fibroblasts, counter-screen, dose response (AID 2010); type: functional, cell-based;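 further: cells exposed to compound for about 90 hours before reading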
[3] = A cytotoxicity screen of small molecule inhibitors of the PhoP region in Salmonella typhi identified in the primary screen. [Related pubchem assays: 1850, 1864, 1985 ]; type: functional
[4] = target: Glucose-6-phosphate 1-dehydrogenase (Homo sapiens, UniProt P11413); test: inhibition of Homo sapiens G6PD, dose series – biochemical, fluorescence, selectivity assay for P. falciparum G6PD inhibitor project, dose response (AID 504792); type: functional
Chain of Glucose-6-phosphate 1-dehydrogenase (P11413 whole entry): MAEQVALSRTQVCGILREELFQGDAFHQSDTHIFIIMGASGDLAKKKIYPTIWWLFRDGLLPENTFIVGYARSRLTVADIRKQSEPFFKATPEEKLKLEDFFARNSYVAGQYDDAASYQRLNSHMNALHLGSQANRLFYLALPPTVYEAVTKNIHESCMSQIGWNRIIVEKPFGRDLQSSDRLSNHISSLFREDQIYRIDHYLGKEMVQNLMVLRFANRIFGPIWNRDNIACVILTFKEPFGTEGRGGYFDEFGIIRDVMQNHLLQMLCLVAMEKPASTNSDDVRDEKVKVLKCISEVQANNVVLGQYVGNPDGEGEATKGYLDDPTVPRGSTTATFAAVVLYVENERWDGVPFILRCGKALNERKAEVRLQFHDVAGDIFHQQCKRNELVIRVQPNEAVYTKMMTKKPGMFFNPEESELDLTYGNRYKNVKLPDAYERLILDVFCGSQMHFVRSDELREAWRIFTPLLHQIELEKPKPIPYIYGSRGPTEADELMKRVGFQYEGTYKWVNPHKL

[5] = target: Luciferin 4-monooxygenase (Photinus pyralis, UniProt P08659); test: Counter Screen for Luciferase-based Assay Positives. [Related pubchem assays: 620, 618, 411 ]
Chain of Luciferin 4-monooxygenase (P08659 whole entry): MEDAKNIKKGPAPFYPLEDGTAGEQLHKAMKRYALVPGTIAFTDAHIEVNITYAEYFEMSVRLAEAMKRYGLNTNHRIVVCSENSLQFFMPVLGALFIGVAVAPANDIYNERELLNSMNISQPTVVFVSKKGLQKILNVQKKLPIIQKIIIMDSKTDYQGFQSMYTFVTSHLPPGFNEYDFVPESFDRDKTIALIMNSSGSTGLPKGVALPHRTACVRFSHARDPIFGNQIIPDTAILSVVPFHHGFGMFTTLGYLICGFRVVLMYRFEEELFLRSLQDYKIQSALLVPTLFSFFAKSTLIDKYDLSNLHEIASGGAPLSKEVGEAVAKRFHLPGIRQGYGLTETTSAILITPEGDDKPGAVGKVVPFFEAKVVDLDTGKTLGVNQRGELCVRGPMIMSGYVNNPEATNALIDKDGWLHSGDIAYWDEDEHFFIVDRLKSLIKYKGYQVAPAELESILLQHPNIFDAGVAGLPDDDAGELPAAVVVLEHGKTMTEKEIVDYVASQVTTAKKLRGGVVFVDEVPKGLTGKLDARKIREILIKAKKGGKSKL

[6] = target: Glyceraldehyde-3-phosphate dehydrogenase (Homo sapiens, UniProt P04406)
Chain of Glyceraldehyde-3-phosphate dehydrogenase (P04406 whole entry): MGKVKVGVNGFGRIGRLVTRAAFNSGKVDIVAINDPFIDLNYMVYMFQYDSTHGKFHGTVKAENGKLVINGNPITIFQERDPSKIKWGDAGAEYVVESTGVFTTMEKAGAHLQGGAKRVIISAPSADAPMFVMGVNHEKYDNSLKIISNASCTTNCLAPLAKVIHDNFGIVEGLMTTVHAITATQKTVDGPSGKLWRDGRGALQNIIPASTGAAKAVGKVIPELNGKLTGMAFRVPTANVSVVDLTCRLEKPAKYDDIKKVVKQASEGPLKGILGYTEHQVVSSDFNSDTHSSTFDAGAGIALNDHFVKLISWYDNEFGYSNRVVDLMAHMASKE

HT-1080 = test: HT1080 cell viability loss – fluorescence readout (AID 620); type: functional, cell-based; conditions: Homo sapiens
HEK293 = test: EBV LMP1 TES2 canonical NF-kB signalling blockers – cell-based, HEK293, luciferase, cherry-pick, dose response (AID 588343); type: functional; conditions: Homo sapiens
[7] = target: T1, Sentrin-specific protease 8 (Homo sapiens, UniProt Q96LD8); type: functional
T1 sequence (Q96LD8 whole entry): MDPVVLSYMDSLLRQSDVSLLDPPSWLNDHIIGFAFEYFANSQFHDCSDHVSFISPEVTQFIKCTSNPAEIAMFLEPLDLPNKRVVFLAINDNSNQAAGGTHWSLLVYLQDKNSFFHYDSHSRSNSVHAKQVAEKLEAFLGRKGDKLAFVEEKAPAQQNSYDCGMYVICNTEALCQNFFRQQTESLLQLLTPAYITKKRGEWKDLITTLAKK

[8] = target: T1, Sentrin-specific protease 8; type: functional; remark: listed apart in the source
Escherichia coli = test: microbe, parasite or virus in culture
[9] = luciferase reporter signal suppression in cells – H4 neuroglioma cells, luminescence, dose response (AID 1990); type: functional, cell-based
[10] = Luminescence Cell-Based Dose Response HTS to Identify Inhibitors of 5'UTR Stem-Loop Driven Prion Protein mRNA Translation in H4 Neuroglioblastoma Cells. [Related pubchem assays: 1827 (Project Summary), 1813 (Primary HTS)]; type: functional
[11] = alpha-synuclein stem-loop luciferase translation blockers – H4 neuroglioma cells, luminescence, confirmation (AID 1988); type: functional, cell-based
Cytochrome P450 2C9 = Cytochrome P450 2C9 (Homo sapiens, UniProt P11712)
Chain of Cytochrome P450 2C9 (P11712 whole entry): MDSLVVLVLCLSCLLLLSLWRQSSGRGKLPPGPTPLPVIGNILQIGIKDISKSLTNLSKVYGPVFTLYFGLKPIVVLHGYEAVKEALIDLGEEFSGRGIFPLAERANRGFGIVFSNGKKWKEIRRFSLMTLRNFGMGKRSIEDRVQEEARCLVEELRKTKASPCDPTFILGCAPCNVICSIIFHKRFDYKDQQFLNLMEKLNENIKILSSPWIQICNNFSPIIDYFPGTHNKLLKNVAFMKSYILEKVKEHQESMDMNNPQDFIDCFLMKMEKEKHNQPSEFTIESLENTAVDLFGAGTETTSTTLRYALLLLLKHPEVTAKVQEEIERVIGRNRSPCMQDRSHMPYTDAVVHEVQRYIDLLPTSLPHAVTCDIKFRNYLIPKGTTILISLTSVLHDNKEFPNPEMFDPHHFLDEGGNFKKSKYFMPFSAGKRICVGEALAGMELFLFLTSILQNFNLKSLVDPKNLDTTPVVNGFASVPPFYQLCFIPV

Prothrombin = Prothrombin (Homo sapiens, UniProt P00734); test: Thrombin 1536 HTS Dose Response Confirmation. [Related pubchem assays: 1046 (Thrombin 1536 HTS; hits were confirmed in this assay)]; type: functional
Coagulation factor XII = target: T2, Coagulation factor XII (Homo sapiens, UniProt P00748); type: functional;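 further: activated factor XIIa alpha cleaving a fluorogenic AMC peptide substrate; inhibitor potency from loss of enzyme activity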
T2 sequence (P00748 whole entry): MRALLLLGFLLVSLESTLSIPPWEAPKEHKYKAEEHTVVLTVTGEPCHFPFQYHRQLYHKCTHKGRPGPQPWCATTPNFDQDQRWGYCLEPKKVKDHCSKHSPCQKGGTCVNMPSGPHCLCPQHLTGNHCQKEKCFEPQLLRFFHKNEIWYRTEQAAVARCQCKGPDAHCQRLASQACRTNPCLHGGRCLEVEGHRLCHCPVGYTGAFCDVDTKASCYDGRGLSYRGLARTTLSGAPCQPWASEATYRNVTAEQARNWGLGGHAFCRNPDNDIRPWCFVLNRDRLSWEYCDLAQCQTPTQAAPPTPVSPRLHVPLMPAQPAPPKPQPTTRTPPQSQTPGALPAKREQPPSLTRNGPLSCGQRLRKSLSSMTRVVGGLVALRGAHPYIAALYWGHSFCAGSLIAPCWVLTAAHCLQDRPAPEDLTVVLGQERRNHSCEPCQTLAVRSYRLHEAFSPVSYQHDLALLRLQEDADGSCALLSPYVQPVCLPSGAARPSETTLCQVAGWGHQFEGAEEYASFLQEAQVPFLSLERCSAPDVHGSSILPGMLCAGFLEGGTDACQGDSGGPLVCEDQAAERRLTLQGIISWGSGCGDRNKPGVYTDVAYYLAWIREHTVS

Chain of Cytochrome P450 3A4 (P08684 whole entry): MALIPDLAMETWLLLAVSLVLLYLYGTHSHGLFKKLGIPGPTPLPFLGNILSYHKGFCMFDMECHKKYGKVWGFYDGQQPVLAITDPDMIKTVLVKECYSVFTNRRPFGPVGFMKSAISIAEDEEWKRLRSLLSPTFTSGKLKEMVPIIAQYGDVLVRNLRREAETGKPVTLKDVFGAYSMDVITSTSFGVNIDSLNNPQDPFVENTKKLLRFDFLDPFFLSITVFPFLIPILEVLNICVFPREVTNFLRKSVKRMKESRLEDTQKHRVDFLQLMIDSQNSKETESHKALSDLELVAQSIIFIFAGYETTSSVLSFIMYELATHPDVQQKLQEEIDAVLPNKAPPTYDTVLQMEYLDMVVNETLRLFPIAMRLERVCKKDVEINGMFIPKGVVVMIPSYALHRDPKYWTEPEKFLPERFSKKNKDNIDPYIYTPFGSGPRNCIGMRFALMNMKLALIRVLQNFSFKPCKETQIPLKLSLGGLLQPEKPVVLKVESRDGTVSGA

CC(=O)OC1CC2C(C)(C)C(O)CCC2(C)C2CC[C@]3(C)C(=CC(=O)OC3c3ccoc3)C12C (stereo partly specified)
AC50 (Cytochrome P450 3A4): 39.8 µM (inconclusive)

O=C(Nc1ccccc1)C12CC3CC(C1)CC(n1cnc([N+](=O)[O-])n1)(C3)C2
EC50 [1]: < 0.1 µM (active)
EC50 [2]: > 60 µM (not active)
EC50 (cells): 0.06 µM (active)

COc1ccc(NC(=O)c2cc(Br)c(Br)s2)cn1
EC50 [3]: > 50 µM (active)

COc1ccc(CCn2c(NN)nc3c2c(=O)[nH]c(=O)n3C)cc1
IC50 [4]: 50.2 µM (inactive)

O=C(O)c1cccc(C(=O)Nc2cccc(NC(=O)C3CCCO3)c2)c1 (stereo unspecified)
EC50 [5]: 56.3 µM (active)
IC50 [6]: > 100 µM (not active)
EC50 (HT-1080): > 50 µM (not active)

COc1ccccc1NC(=O)CN1CCN(c2ccccc2)CC1
EC50 [3]: > 50 µM (active)

Clc1ccc2nc(-c3ccc4c(c3)OCO4)cn2c1
IC50 [4]: > 80 µM (inactive)
AC50 (HEK293): 4.13 µM (active)

C[N+]1(C)CCC(=C2c3ccccc3CC(=O)c3sccc32)CC1
IC50 [7]: 30.4 µM (active)
IC50 [8]: 12.6 µM (active)

CC(=O)N(Cc1ccc(F)cc1)c1cccc(C)c1C
AC50 (Escherichia coli): 23.7 µM (active)

Cn1c(-c2ccccc2)cnc1SCC(=O)N1CCCCC1
EC50 [9]: 8.1 µM (inconclusive)
EC50 [5]: 22.8 µM (active)
EC50 [10]: 5.72 µM (active)
EC50 [11]: 3.2 µM (active)
EC50 (HT-1080): > 50 µM (not active)
AC50 (HEK293): 2.47 µM (active)

COc1cccc(C(=O)Nc2nnc(C(C)C)s2)c1
IC50 [4]: 52.7 µM (inactive)

Cc1ccccc1NC1=NC(=S)N(c2ccccc2)C12CCOC(C)(C)C2 (stereo unspecified)
AC50 (Cytochrome P450 2C9): 11.2 µM (inconclusive)
AC50 (Escherichia coli): 22.6 µM (active)

Cc1ccc2c(c1)C1CN(C)CCC1N2C(=O)c1ccc(Cl)c(S(=O)(=O)N2CCOCC2)c1 (stereo unspecified)
EC50 [1]: < 0.1 µM (active)
EC50 [2]: > 60 µM (not active)
EC50 (cells): 0.199 µM (active)

NS(=O)(=O)c1ccc(CCNC(=O)Cc2ccccc2[N+](=O)[O-])cc1
IC50 (Prothrombin): > 50 µM (not active)
IC50 (Coagulation factor XII): > 50 µM (inactive)

COc1ccc(CCn2c(NN=C(C)C)nc3c2c(=O)[nH]c(=O)n3C)cc1
IC50 [4]: 77.8 µM (inactive)

O=C(CSc1cccc[n+]1[O-])Nc1ccccc1C(F)(F)F
AC50 (Escherichia coli): 48.6 µM (active)

CCC(CC)C(=O)N(C)c1c(C)nc2c(OCC=C(C)C)cccn12
IC50 [7]: > 100 µM (inactive)
IC50 [8]: 33.4 µM (active)

O=C(/C=C(\O)c1ccccc1)c1ccccc1O [2',beta-DIHYDROXYCHALCONE]
AC50 (Cytochrome P450 3A4): 15.8 µM (inconclusive)

COc1ccc(C2CC(=O)c3ccc(OC)cc3O2)cc1 (stereo unspecified) [LIQUIRITIGENIN DIMETHYL ETHER]
AC50 (Cytochrome P450 3A4): 20 µM (inconclusive)

CC1=C(/C=C/C(C)=C/C=C/C(C)=C/C=O)C(C)(C)CCC1 [RETINAL]
AC50 (Cytochrome P450 3A4): 12.6 µM (inconclusive)
